Values of other authors, collected in US5268389A, “Thiocarboxylate ester compounds compositions containing the same” (priority 1990, dated 1993).

Test system: host DNA synthesis
Details: administration of AZT; cited from earlier work

## Cc1cn([C@H]2C[C@H](N=[N+]=[N-])[C@@H](CO)O2)c(=O)[nH]c1=O [AZT, Azidothymidine]
  side effects: severe side effects, e.g., anemia, granulocytopenia, and thrombocytopenia
